Data as given in patent publication US5045566A, “Novel imidate insecticides” (ICI Americas Inc., priority 1989, dated 1991).

What was measured:
Format in all cases: in vivo
[1] = tested on: Cabbage Looper [Trichoplusia ni (Hubner)]; experiment: Cabbage looper leaf dip (CL), 3-5 days; conditions: percent in solution, second-instar larvae
Outline: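 Compounds in 50-50 acetone-water were applied by dipping squash cotyledons (about 1×1.5 in) for 2-3 s; dried leaves went into petri dishes on moist filter paper with 5 second-instar larvae under high humidity. Mortality was scored after 3-5 days; LC50 from dosage-mortality curves, as percent compound in solution.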

[2] = tested on: Tobacco Budworm [Heliothis virescens (Fabricius)] eggs; experiment: Tobacco budworm eggs (TBW-E); conditions: percent in solution; 2-day old eggs
Outline: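 Paper towel patches bearing 2-day old eggs were dipped in acetone solutions of compound, then set in petri dishes over larval rearing medium at 78° F. Mortality was scored once all control eggs had hatched and larvae were feeding. LC50, from dosage-mortality curves, is given as percent compound in solution.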

[3] = tested on: Black Bean Aphid [Aphis fabae (Scop.)]; experiment: Black bean aphid spray test on nasturtium (BBA), 48 hours; conditions: percent of test compound in sprayed solution
Outline: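 LC50, given as percent test compound in the sprayed liquid, was calculated from dosage-mortality curves using concentrations from 0.05% downward. Sprays in 50:50 acetone-water went to runoff on ~5 cm nasturtiums carrying 25-50 aphids of mixed ages, one day after infestation. Deaths were counted 48 h later under greenhouse conditions.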

[4] = tested on: Maize weevil [Sitophilus zeamais (Motschulsky)]; experiment: Maize weevil on dipped corn seeds (MW), 48 hours; conditions: percent in solution, adult weevils
Outline: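 LC50, given as percent of compound in dipping solution, comes from dosage-mortality curves over concentrations descending from 0.01%. Four corn seeds soaked 2-3 s in 50:50 acetone:water solution were dried and held with 10 adult weevils, about 25° C, mortality read after 48 h.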

[5] = tested on: Housefly [Musca domestica]; experiment: Housefly contact mortality in dishes (HF), 48 hours; conditions: μg of test compound per 25 female flies
Outline: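 LC50 (μg compound per 25 female flies) derives from dosage-mortality curves of 48 h kill. Flies, females 1-2 days old, were held 25 per cage over a dish coated with dried acetone deposit, starting at 100 μg per cage and descending.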

SMILES	LC50 CL [1] [%]	LC50 TBW E (eggs) [2] [%]	LC50 BBA [3] [%]	LC50 MW [4] [%]	LC50 HF [5] [µg]
CC(C)C(=Nc1ccc(C(F)(F)F)cc1Cl)OCc1cccc(Oc2ccc(F)cc2)c1 [Compound 427]	< 0.1	> 0.1	0.05	> 0.01	> 100
CC(C)C(=Nc1ccc(C(F)(F)F)cc1Cl)OCc1ccc(F)c(Oc2ccccc2)c1 [Compound 428]	0.0017	> 0.1	0.003	> 0.01	> 100
CC(C)C(=Nc1ccc(OCC(F)(F)F)c(F)c1)OCc1cccc(Oc2ccc(Cl)cc2)c1 [Compound 429]	0.0017	< 0.1	0.005	> 0.01	> 100
C=C(C)C(=Nc1ccc(C(F)(F)F)cc1)OCc1cccc(Oc2ccccc2)c1 [Compound 430]	0.001	0.032	0.0006	0.004	< 100
CC(C)C(=Nc1ccc(C(F)(F)F)c(Br)c1)OCc1ccc(F)c(Oc2ccccc2)c1 [Compound 434]	0.0017	> 0.1	0.003	0.009	< 100
COc1ccc(N=C(OCc2ccc(F)c(Oc3ccccc3)c2)C(C)C)cc1F [Compound 435]	0.002	0.04	0.001	> 0.01	< 100
CC(C)C(=Nc1cccc(OC(F)(F)F)c1)OCc1ccc(F)c(Oc2ccccc2)c1 [Compound 437]	0.00075	0.025	0.0003	> 0.01	< 100
CCc1ccc(N=C(OCc2cccc(Oc3ccc(F)cc3)c2)C(C)C)cc1Cl [Compound 438]	0.0009	< 0.1	0.0003	> 0.01	> 100
CCOc1ccc(N=C(OCc2ccc(F)c(Oc3ccccc3)c2)C(C)C)cc1F [Compound 439]	0.00045	> 0.1	0.0003	> 0.01	> 100
CCCc1ccc(N=C(OCc2ccc(F)c(Oc3ccc(F)cc3)c2)C(C)C)cc1 [Compound 440]	0.002	< 0.1	0.0003	> 0.01	> 100
CC(C)C(=Nc1ccc(Cl)c(F)c1)OCc1ccc(F)c(Oc2ccc(F)cc2)c1 [Compound 441]	0.000025	0.016	0.0003	0.006	< 100
C=C(C)C(=Nc1ccc(C(F)(F)F)cc1)OCc1cccc(Oc2ccc(F)cc2)c1 [Compound 442]	0.0007	0.035	0.001	> 0.01	< 100
CC(C)C(=Nc1ccc(C(F)(F)F)cc1[N+](=O)[O-])OCc1ccc(F)c(Oc2ccccc2)c1 [Compound 445]	0.00045	> 0.1	0.001	> 0.01	< 100
CCOc1ccc(N=C(OCc2cccc(Oc3ccc(F)cc3)c2)C(C)C)cc1Br [Compound 446]	0.0008	< 0.1	0.001	> 0.01	> 100
CC(C)C(=Nc1cccc(C(F)(F)F)c1)OC(C)c1cccc(Oc2ccccc2)c1 (centres unmarked) [Compound 459]	0.008	0.1	> 0.05	> 0.01	> 100
CC(C)C(=Nc1ccc(F)c(Cl)c1)OCc1cccc(Oc2c(F)c(F)c(F)c(F)c2F)c1 [Compound 460]	0.02	> 0.1	> 0.05	> 0.01	> 100
CC(C)C(=Nc1ccc(I)c(Cl)c1)OCc1cccc(Oc2ccc(Cl)cc2)n1 [Compound 471]	0.00018	0.018	0.001	> 0.01	< 100

SMILES	LC50 CL [1] [%]	LC50 TBW E (eggs) [2] [%]	LC50 BBA [3] [%]	LC50 MW [4] [%]	LC50 HF [5] [µg]
COCc1c(F)c(F)c(COC(=Nc2cccc(C(F)(F)F)c2)C(C)C)c(F)c1F [Compound 503]	0.001	0.08	0.006	> 0.01	21
CC(C)C(=Nc1ccc(C(F)(F)F)cc1)OCc1cccc(Oc2ccccc2)n1 [Compound 504]	0.00025	0.05	0.0003	0.01	< 100
COCc1c(F)c(F)c(COC(=Nc2ccc(F)c(Cl)c2)C(C)C)c(F)c1F [Compound 505]	0.0024	0.09	0.002	> 0.01	14
CC(C)C(=Nc1cccc(C(F)(F)F)c1)OCc1cc(Oc2ccccc2)ccn1 [Compound 506]	0.005	> 0.1	0.03	> 0.01	40
CC(C)C(=Nc1cccc(C(F)(F)F)c1)OCc1ccnc(Oc2ccccc2)c1 [Compound 507]	0.002	> 0.1	0.05	> 0.01	93
CC(C)C(=Nc1cccc(C(F)(F)F)c1)OCc1cc(Oc2ccc(Cl)cc2)ccn1 [Compound 509]	0.0075	> 0.1	> 0.05	> 0.01	79
CC(C)C(=Nc1ccc(F)c(Cl)c1)OCc1ccnc(Oc2ccccc2)c1 [Compound 510]	0.017	> 0.1	0.05	> 0.01	54
CC(C)C(=Nc1ccc(F)c(Cl)c1)OCc1ccnc(Oc2ccc(F)cc2)c1 [Compound 511]	0.0012	> 0.1	0.05	> 0.01	89
CC(C)C(=Nc1ccc(OC(F)(F)F)cc1)OCc1cccc(Oc2ccccc2)n1 [Compound 550]	0.00034	> 0.1	0.002	> 0.01	< 100
CC(C)C(=Nc1ccc(Br)c(F)c1)OCc1cccc(Oc2ccc(Cl)cc2)n1 [Compound 551]	0.00075	0.035	0.0006	> 0.01	< 100
CCc1ccc(N=C(OCc2cccc(Oc3ccc(Cl)cc3)n2)C(C)C)cc1 [Compound 552]	0.0016	> 0.1	0.002	> 0.01	> 100
CC(C)C(=Nc1ccc(Cl)cc1)OCc1cccc(Oc2ccccc2)n1 [Compound 553]	< 0.1	0.1	0.05	> 0.01	< 100
CC(C)C(=Nc1ccc(Cl)cc1)OCc1cccc(Oc2ccc(Cl)cc2)n1 [Compound 554]	0.00075	0.04	0.003	> 0.01	> 100
CC(C)C(=Nc1ccc(Cl)c(C(F)(F)F)c1)OCc1cccc(Oc2ccccc2)n1 [Compound 555]	0.002	> 0.1	0.0035	> 0.01	< 100
CC(C)C(=Nc1ccc2c(c1)OC(F)(F)O2)OCc1cccc(Oc2ccccc2)n1 [Compound 556]	0.0007	0.04	0.0035	> 0.01	< 100
CC(C)C(=Nc1cccc(Br)c1)OCc1cccc(Oc2ccc(Cl)cc2)n1 [Compound 557]	0.0004	> 0.1	0.0015	> 0.01	< 100
CC(C)C(=Nc1ccc(F)c(Br)c1)OCc1cccc(Oc2ccccc2)n1 [Compound 558]	0.00045	> 0.1	0.0012	> 0.01	< 100
